In US11724998B2, “PXR agonists and uses thereof for gut barrier dysfunction treatment and prevention” (Albert Einstein College of Medicine, priority 2017, dated 2023) one finds EC50 and Emax data, which are given here for one compound.

Molecules are shown by their SMILES.

The target of this assay is T1, PXR (Homo sapiens, UniProt O75469).
T1 sequence (O75469 1-434): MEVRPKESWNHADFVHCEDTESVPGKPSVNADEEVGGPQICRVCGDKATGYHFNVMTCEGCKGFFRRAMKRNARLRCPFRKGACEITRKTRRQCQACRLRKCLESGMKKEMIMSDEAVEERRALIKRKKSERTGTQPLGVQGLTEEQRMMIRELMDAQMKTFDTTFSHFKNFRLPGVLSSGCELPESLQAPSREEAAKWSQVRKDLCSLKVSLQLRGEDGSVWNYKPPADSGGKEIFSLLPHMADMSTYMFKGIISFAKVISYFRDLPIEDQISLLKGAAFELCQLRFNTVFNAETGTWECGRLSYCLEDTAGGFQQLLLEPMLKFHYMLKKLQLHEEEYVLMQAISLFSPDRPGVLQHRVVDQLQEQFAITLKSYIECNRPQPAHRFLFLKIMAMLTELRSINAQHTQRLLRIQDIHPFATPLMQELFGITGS
As to the kind of experiment: PXR activation (transactivation) luciferase assay in LS180 cells. The class given is cell-based. More on the design: co-transfecting full-length expressing human PXR plasmid (91) and p3A4 luciferase reporter (92) in LS180 or Caco-2 cells; expressed in transfected cells; host or cells: LS180. The protocol:
FIG. 6A-6E. Activation and inhibition studies with different FKK compounds. (A) PXR activation, LS180 cells (upper), and PXR inhibition, LS180 cells, co-incubation with RIF (lower). (B) AhR activation, AZ-AHR cells (upper), and AhR inhibition, AZ-AHR cells, co-incubation with TCDD (lower). (C) GR activation, AZ-GR cells (upper), and VDR activation, IZ-VDRE cells (lower). (D) TR activation, PZ-GR cells (upper), and AR activation, AIZ-AR cells (lower). (E) Displacement of radiolabeled 9-cis-retinoic acid (RA) by FKK compounds.
Two molecules that were readily available (Ryan Scientific: FKK999 & BAS451) were purchased and tested in vitro for PXR activation using a HepG2 reporter assay. […] […]. […] In general, reporter cell lines are efficient ways to screen for PXR ligands (72). In the LS180 intestinal cell line, the PXR activation assay involves a transient transfection system using a specific PXR plasmid and reporter plasmid (CVmax % 11.2+2; CVmid % 10.8+0.1.4; Signal Window 6.2+1.1; Z′ factor 0.51+0.005).
All the synthesized compounds and intermediates were tested for their potential to activate PXR and/or AhR via luciferase assays. The PXR activation assays were performed by co-transfecting full-length expressing human PXR plasmid (91) and p3A4 luciferase reporter (92) in LS180 or Caco-2 cells. AhR activation conducted using stably co-transfected HepG2 reporter cells as previously described (93). […] With the exception of FKK6, there was no significant inhibition of TCDD-induced AhR activation. […] Independent verification of AhR activity of randomly selected compounds—FKK 5, 6 and 9—was performed in a separate laboratory (GHP). Nuclear receptor selectivity was assessed for FKK compounds for GR, ADR, TR and AR using cell-based luciferase assays previously described (93-102). There was no observed biologically significant (>2-fold) induction of nuclear receptor activity (FIG. 6C). RXR ligand displacement is only significant for FKK1 and FKK8 (FIG. 6D).

One may read the EC50 as the concentration needed to bring the measured effect to its halfway point. Lower therefore signals an effect from little substance. Compound `O=C(c1ccncc1)c1cc2ccccc2n1S(=O)(=O)c1ccccc1` [FKK5] displayed a half-maximal effective concentration (EC50) of 1680 nM. Also, the Emax (read-out: Emax/Emax[rifampicin, positive control]) is 128%.
